Assay results as given in patent publication US20240139211A1, “METHODS AND COMPOSITIONS FOR TREATING AMYOTROPHIC LATERAL SCLEROSIS” (Amylyx Pharmaceuticals, Inc., priority 2022, published 2024).
Like-named read-outs stand apart in the source and are kept apart here.

Experiments:
in vitro = conditions: human, Caco-2
P-gp = P-gp (Homo sapiens, UniProt P08183); test: Inhibitor of P-gp, 3H-digoxin efflux in Caco-2 cells
human hepatocytes = test: Cytotoxicity of six test articles in hepatocyte cultures (MTS); conditions: Donor 1, 72±2 hours
OCT2 = biological target: T1, OCT2 (Homo sapiens, UniProt O15244); test: Inhibitor of OCT2, probe substrate uptake; conditions: two concentrations per test article
T1 sequence (O15244 1-555): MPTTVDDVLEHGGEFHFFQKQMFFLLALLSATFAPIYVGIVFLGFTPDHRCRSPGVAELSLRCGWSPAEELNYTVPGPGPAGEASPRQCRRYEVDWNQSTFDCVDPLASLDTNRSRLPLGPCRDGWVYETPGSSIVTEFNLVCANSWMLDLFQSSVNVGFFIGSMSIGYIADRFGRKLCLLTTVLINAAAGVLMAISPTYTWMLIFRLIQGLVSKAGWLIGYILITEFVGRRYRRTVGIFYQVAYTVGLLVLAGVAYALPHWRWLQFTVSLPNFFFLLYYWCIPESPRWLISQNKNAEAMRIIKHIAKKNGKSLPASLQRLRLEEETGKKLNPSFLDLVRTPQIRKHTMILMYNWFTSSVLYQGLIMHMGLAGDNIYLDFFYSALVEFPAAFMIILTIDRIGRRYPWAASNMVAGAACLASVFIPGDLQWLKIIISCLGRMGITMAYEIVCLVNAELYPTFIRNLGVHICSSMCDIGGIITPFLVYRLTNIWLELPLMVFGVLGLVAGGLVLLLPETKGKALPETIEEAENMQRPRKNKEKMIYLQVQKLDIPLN

MATE2K [1] = biological target: T2, MATE2K (Homo sapiens, UniProt Q86VL8); test: Inhibitor of MATE2-K, probe substrate uptake; conditions: two concentrations per test article
CYP1A2 mRNA = test: CYP1A2 gene expression induction in hepatocyte cultures
CYP3A4 mRNA = test: CYP3A4 gene expression induction in hepatocyte cultures
BSEP = BSEP (Homo sapiens, UniProt O95342); test: Substrate of BSEP; conditions: test article 1 and 10 μM
Caco-2 cells = conditions: 1 and 10 μM (tauroursodeoxycholic acid: 10 μM)
CYP2B6 mRNA = test: CYP2B6 gene expression induction in hepatocyte cultures; conditions: for EC50: read-out: EC50, CYP2B6 gene expression
BCRP = biological target: T3, BCRP (Homo sapiens, UniProt Q9UNQ0); test: Inhibitor of BCRP, 3H-estrone-3-sulfate efflux in Caco-2 cells
T3 sequence (Q9UNQ0 1-655): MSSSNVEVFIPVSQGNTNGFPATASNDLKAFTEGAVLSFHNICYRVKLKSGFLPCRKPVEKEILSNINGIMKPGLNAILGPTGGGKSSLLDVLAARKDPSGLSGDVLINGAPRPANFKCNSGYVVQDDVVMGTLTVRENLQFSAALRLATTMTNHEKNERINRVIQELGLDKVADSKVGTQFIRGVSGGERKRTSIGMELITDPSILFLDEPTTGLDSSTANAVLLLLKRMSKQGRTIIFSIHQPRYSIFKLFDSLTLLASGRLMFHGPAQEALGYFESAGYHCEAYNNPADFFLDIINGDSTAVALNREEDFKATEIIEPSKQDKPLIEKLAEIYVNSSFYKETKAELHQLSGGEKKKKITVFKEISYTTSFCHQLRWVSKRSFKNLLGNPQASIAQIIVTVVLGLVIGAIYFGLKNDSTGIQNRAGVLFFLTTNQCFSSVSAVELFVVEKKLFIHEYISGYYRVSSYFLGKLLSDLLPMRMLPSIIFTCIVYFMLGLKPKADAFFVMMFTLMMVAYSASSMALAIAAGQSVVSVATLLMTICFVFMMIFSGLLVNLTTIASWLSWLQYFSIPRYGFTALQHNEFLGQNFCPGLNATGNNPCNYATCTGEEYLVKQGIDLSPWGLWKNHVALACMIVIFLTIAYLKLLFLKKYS

MATE2K [2] = biological target: T2, MATE2K; test: Substrate of MATE2-K, uptake in HEK293 cells; conditions: human, 2 min
Description: Vector-transfected HEK cells were used as a control.

[3] = Caco-2, two concentrations per test article
[4] = two concentrations per test article, Caco-2 cells
[5] = gene expression and enzyme activity, three donors

T2 sequence (Q86VL8 1-566 isoform Q86VL8-3): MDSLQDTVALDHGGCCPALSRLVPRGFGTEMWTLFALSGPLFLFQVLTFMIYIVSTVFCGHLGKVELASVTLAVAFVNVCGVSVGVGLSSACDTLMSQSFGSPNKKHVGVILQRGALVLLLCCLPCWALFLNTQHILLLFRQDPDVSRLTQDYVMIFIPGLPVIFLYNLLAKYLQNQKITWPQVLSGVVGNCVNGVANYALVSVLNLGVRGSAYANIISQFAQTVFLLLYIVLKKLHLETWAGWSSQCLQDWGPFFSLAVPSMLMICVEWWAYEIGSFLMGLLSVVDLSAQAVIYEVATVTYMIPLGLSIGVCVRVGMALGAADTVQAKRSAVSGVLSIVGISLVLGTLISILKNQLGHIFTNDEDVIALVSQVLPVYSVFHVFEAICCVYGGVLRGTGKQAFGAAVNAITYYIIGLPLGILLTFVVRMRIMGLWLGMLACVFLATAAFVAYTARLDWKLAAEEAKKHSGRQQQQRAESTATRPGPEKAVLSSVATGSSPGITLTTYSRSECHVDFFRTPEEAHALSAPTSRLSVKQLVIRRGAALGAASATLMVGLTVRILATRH
P-gp, sequence (P08183 whole entry): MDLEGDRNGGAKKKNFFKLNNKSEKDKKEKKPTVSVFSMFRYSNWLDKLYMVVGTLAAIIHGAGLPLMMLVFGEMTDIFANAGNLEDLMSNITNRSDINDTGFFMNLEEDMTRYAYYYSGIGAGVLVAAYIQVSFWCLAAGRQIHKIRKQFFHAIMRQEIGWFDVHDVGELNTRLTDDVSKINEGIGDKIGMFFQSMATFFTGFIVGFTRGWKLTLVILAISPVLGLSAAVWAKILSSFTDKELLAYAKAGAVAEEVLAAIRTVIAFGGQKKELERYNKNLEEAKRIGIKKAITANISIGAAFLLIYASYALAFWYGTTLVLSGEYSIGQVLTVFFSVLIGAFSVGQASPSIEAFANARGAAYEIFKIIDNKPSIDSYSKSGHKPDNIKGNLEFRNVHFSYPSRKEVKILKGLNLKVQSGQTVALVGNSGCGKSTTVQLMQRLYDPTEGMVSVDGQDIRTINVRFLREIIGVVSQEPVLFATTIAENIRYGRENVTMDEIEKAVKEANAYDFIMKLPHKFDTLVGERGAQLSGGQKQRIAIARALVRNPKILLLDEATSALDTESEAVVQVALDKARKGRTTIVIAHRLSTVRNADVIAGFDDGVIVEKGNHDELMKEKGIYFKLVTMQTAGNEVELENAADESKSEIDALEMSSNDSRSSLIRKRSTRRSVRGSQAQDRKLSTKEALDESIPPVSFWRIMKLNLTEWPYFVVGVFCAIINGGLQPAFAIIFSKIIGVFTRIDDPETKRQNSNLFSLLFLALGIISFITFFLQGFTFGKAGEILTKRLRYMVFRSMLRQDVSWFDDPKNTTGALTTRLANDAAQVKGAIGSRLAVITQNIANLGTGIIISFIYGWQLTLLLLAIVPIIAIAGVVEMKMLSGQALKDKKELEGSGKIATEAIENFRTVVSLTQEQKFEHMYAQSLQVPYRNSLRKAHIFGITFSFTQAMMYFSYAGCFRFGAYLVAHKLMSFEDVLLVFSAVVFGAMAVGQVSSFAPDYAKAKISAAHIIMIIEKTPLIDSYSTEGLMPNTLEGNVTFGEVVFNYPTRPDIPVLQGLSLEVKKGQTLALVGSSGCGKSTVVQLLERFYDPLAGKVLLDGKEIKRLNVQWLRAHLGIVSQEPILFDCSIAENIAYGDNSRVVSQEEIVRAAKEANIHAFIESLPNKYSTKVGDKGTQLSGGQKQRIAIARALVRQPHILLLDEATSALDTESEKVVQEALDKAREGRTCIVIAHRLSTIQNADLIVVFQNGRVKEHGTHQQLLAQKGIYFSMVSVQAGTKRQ
BSEP, sequence (O95342 whole entry): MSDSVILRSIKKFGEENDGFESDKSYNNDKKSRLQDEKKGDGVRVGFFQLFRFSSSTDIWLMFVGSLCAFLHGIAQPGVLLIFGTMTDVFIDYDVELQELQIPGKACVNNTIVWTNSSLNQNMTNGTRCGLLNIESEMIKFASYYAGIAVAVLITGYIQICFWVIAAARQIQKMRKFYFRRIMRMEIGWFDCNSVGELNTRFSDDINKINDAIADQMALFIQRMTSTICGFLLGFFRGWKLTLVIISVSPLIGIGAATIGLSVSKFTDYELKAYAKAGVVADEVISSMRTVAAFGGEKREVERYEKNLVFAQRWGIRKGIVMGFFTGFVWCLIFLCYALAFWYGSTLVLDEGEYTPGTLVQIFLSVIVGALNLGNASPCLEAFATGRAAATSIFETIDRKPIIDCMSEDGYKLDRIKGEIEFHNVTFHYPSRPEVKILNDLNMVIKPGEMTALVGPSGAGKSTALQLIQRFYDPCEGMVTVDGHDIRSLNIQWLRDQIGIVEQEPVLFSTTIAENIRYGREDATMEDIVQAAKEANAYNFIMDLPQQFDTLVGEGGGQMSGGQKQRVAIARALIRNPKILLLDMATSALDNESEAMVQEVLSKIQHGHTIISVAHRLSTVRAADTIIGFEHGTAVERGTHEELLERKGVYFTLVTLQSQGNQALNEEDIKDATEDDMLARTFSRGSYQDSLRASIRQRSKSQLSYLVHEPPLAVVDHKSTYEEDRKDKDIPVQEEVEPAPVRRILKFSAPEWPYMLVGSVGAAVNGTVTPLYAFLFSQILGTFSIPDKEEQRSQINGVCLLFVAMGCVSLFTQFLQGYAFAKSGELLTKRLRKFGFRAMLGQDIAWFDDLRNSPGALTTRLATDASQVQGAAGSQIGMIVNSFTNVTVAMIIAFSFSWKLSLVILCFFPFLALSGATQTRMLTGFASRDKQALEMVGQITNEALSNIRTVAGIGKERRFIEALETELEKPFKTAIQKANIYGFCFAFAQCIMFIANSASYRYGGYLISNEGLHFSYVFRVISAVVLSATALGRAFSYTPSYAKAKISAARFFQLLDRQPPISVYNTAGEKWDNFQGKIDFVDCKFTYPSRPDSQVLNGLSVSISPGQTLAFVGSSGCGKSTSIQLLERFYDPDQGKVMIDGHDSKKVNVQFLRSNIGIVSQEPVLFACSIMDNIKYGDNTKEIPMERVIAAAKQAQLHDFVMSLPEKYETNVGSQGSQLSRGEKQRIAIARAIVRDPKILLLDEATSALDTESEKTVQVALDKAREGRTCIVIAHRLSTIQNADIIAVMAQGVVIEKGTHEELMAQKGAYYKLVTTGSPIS

SMILES	Papp A→B (in vitro)	Papp B→A (in vitro)	Inhibitor of P-gp (P-gp; [3])	Inhibitor of P-gp (P-gp; [4])	Concentrations at which not hepatotoxic (human hepatocytes)	Inhibition of OCT2 (OCT2)	Inhibitor of OCT2 (OCT2)	Inhibition of MATE2-K (MATE2K [1])	Inhibitor of MATE2-K (MATE2K [1])	Substrate of BSEP (BSEP)	Permeability in Caco-2 cell assay (Caco-2 cells)	Emax, CYP2B6 gene expression (CYP2B6 mRNA; Donor 1)	Emax, CYP2B6 gene expression (CYP2B6 mRNA; Donor 2)	EC50 (CYP2B6 mRNA; Donor 2)	Inhibitor of BCRP (BCRP; [3])	Inhibitor of BCRP (BCRP; [4])	other results
C[C@H](CCC(=O)NCC(=O)O)[C@H]1CC[C@H]2[C@@H]3[C@@H](O)C[C@@H]4C[C@H](O)CC[C@]4(C)[C@H]3CC[C@]12C [Glycoursodeoxycholic acid, glycoursodeoxycholic acid]	≥ 2.4 ×10⁻⁶ cm/s	≥ 6.84 ×10⁻⁶ cm/s	identified as an inhibitor	Yes	≤ 100 µM	did not inhibit	No	did not inhibit	No	Yes	moderate permeability	5.60 fold	4.53 fold	1.39 µM	identified as an inhibitor	Yes	efflux ratio at 1 μM (in vitro): 1.86; efflux ratio at 10 μM (in vitro): 2.85; recovery (in vitro): ≥ 75%; potency estimated from few doses (P-gp; read-out: Estimated IC50, P-gp, estimated from two concentrations, Caco-2 cells): < 10 µM; Emax, CYP1A2 gene expression (CYP1A2 mRNA; Donor 1): 11.7 fold; Maximum fold induction of CYP1A2 gene expression (CYP1A2 mRNA; Donor 2): 13.0 fold; Maximum fold induction of CYP1A2 gene expression (CYP1A2 mRNA; Donor 3): 7.83 fold; Inducer of CYP1A2 (conclusion) (CYP1A2 mRNA; [5]): as an inducer; Maximum fold induction of CYP3A4 gene expression (CYP3A4 mRNA; Donor 2): 3.40 fold; Maximum fold induction of CYP3A4 gene expression (CYP3A4 mRNA; Donor 3): 3.30 fold; Inducer of CYP3A4 (conclusion) (CYP3A4 mRNA; [5]): did not meet the classification requirements to be identified as an inducer of CYP3A4; Maximum fold induction of CYP2B6 gene expression (CYP2B6 mRNA; Donor 2): 4.80 fold; Emax, CYP2B6 gene expression (CYP2B6 mRNA; Donor 3): 5.78 fold; Maximum fold induction of CYP2B6 gene expression (CYP2B6 mRNA; Donor 3): 5.68 fold; EC50 (CYP2B6 mRNA; Donor 3): 1.48 µM; potency estimated from few doses (BCRP; read-out: Estimated IC50, BCRP, estimated from two concentrations, Caco-2 cells): > 100 µM
O=C(O)CCCc1ccccc1 [PB, sodium phenylbutyrate]	≤ 28.9 ×10⁻⁶ cm/s	254 ×10⁻⁶ cm/s	not an inhibitor	No	≤ 250 µM	did not inhibit	No	did not inhibit	No	No	high permeability	8.54 fold	24.4 fold	108 µM	not an inhibitor	No	Remaining P-gp activity, % of the control (P-gp; higher test concentration): 106%; Remaining P-gp activity, % of the control (P-gp; lower test concentration): 93.5%; Decrease of MATE2-K uptake by known inhibitor (MATE2K [2]): > 25%; Uptake in MATE2-K cells (MATE2K [2]): 27.5 pmol/minute/mg protein; EC50 (CYP2B6 mRNA; Donor 1): 19.1 µM; Remaining BCRP activity, % of the control (BCRP; higher test concentration (UDCA: second assay)): 84.7%; Remaining BCRP activity, % of the control (BCRP; lower test concentration (UDCA: second assay)): 125%
